Source: paper PMC11823679, “Protamine protects against vancomycin-induced kidney injury” (Antimicrobial Agents and Chemotherapy, 2025)

Experiments:
acute kidney injury = settings: cited from earlier work
Text: Vancomycin is one of the most widely used antibiotics within United States in-patient healthcare systems, accounting for 11.9% of all antibiotic use for inpatient antimicrobials (1,258 out of 10,612) in a 2015 hospital survey ([1]). As a tricyclic glycopeptide, it is primarily indicated for severe Gram-positive bacterial infections, including methicillin-resistant Staphylococcus aureus (MRSA) ([2]). For about 70 years now, vancomycin has remained a first-line antibiotic widely used and studied across people of all ages. Despite its efficacy in the treatment of MRSA infections, one common limit ... || In humans, VAN (creatinine defined) ([41]) occurs between an interquartile range of 6–13 days ([42]), and creatinine is known to lag behind GFR ([43]). Serum creatinine is the most commonly utilized biomarker to classify AKI in patients ([41], [44][–][46]); however, creatinine is non-sensitive, non-specific, and slowly reactive to kidney function as compared to GFR ([47]). GFR can drop 50% before changes in SCr are detected ([48][–][50]). As such, acute injuries from vancomycin take a median of 6 days to be detectable with creatinine alone ([51]). Therefore, this study focused on the pre-clini ... || Originally derived from salmon fish sperm (salmine), protamine is a highly positively charged protein consisting of 32 amino acids. Currently, it is widely used as an effective agent to neutralize heparin using electrostatic bonds made between the cationic arginine groups of protamine and the anionic heparin in a 1:1 ratio ([6]). Specifically, protamine shares binding sites with heparin (current target for FDA-approved use) and megalin ([30], [31]). On this note, a clinical limitation for the use of protamine arises for patients who require heparin infusions, such as post-diabetic foot infecti ...

megalin = system: megalin; design: method as in Hori et al. ([18]); settings: quartz crystal microbalance analysis, ref Hori et al. ([18]), cited from earlier work
Text: Hori et al. ([18]) performed a study to evaluate the binding of megalin to vancomycin and cisplatin, as well as aminoglycosides and colistin. They utilized quartz crystal microbalance analysis to assess the dir ...

Urinary KIM-1 = Urinary KIM-1 kidney injury in rats given vancomycin and/or protamine; settings: for Contrast KIM-1: urinary KIM-1, vancomycin 150 mg/kg i.v., protamine sulfate 1.5 mg/kg i.v.
Experimental: Male Sprague-Dawley rats (n = 19; age 8–10 weeks; 268–304 g; Envigo, Indianapolis, IN, USA) underwent double jugular catheterization ([33]) (Fig. 3A). Surgery was performed under ketamine (100 mg/kg of body weight) and xyalzine (10 mg/kg of body weight) anesthesia with buprenorphine (0.02 mg/kg of body weight) given post-operatively for pain management. Animals were allowed to recover 4 days before the administration of any drug. Animals were housed in metabolic cages starting 1 day prior to day 0 with access to food and water ad libitum for the duration of the study (Fig. 3B).
Animals were divided into three experimental treatment protocols. Using a dedicated jugular vein for dosing, the animals received clinical grade intravenous protamine and/or vancomycin in doses allometrically scaled to humans according to the following protocols: (i) protamine sulfate (1.5 mg/kg of body weight) and vancomycin (150 mg/kg of body weight) (n = 6); (ii) protamine only (1.5 mg/kg of body weight) with saline sham (sham for volume of vancomycin) (n = 7); or (iii) vancomycin only (150 mg/kg of body weight) with saline sham (sham for volume of protamine) (n = 6) ([34][–][36]). Saline sham was given to match the volumes of protamine and vancomycin doses to maintain euvolemia. On day 0, all animals received only iohexol (51.8 mg/day) intravenously to establish baseline GFR measurements. Drugs were administered as described above by treatment protocols to all groups on days 1–4. Infusion times for each of the drugs include (i) protamine sulfate, 5 minutes; (ii) vancomycin and iohexol, 2 minutes; and (iii) saline sham, 5 or 2 minutes depending on what the sham was replacing.
Urine samples were collected daily, and volumes were measured starting from day 0 to day 4. Samples were centrifuged at 500 g for 10 minutes, and the resulting supernatant was aliquoted (1.5 mL) and stored at −80°C for renal biomarker analysis later.
Urinary samples were analyzed for KIM-1 using the Milliplex MAP Rat Kidney Toxicity Magnetic Bead Panel 1 (EMD Millipore Corporation, Charles, MO, USA) according to the manufacturer’s directions and as previously described ([34], [36], [37]). Briefly, neat urine aliquots were mixed with monoclonal antibody-coated magnetic microbeads (Bead Panel 1) and run on a 96-well plate, which also included a standard curve. Biomarker data were acquired, and concentrations were analyzed using Belysa Immunoassay Curve-Fitting Software V1 (MilliporeSigma, Darmstadt, Germany). The amount of urinary KIM-1 excreted over the 24-h collection period was obtained by multiplying the urinary concentration by 24-h urinary volume.
An omnibus test, i.e., joint tests (multi-degree of freedom) of the interaction and main effects, which is similar to the F test in ANOVA, was used initially (STATA 17.0 BE, StataCorp LLC, College Station, TX, USA). Only models with significant interaction at P < 0.05 were selected for post hoc analysis (i.e., identification of the difference between treatment groups and days). Margins were calculated for a full factorial of the variables, i.e., main effects for each variable and interactions. Referent groups were pre-treatment baseline values and protamine alone as a treatment, except where noted. […] LOWESS graphs were produced in R version 4.2.2 using ggplot2. […] All tests were two-tailed; a P < 0.05 was required for statistical significance. Graphs for cellular studies were generated using GraphPad version 9.3.1 and were fit with a log(inhibitor) vs normalized response function after log transformation.

[1] = within group, day 2 vs 1 (baseline)
[2] = within group, day 3 vs 1 (baseline)
[3] = within group, day 4 vs 1 (baseline)

Compound: CN[C@H](CC(C)C)C(=O)N[C@H]1C(=O)N[C@@H](CC(N)=O)C(=O)N[C@H]2C(=O)N[C@H]3C(=O)N[C@H](C(=O)N[C@H](C(=O)O)c4cc(O)cc(O)c4-c4cc3ccc4O)[C@H](O)c3ccc(c(Cl)c3)Oc3cc2cc(c3O[C@@H]2O[C@H](CO)[C@@H](O)[C@H](O)[C@H]2O[C@H]2C[C@](C)(N)[C@H](O)[C@H](C)O2)Oc2ccc(cc2Cl)[C@H]1O [Vancomycin]
- Time to VAN (creatinine defined), interquartile range (acute kidney injury; humans, after treatment initiation): 6 to 13 days
- Median time for acute injury to be detectable with creatinine alone (acute kidney injury; humans): 6 days
- Risk of AKI compared to other antibiotics (acute kidney injury; systematic review and meta-analysis): up to 2.5 times greater
- Direct binding to megalin (in words) (megalin): megalin is bound specifically
- KIM-1 compared to protamine alone (in words) (Urinary KIM-1; day 2, 24 h after drug administration): significantly increased urinary KIM-1
- KIM-1 change from baseline of day 1 (in words) (Urinary KIM-1; each animal group compared to itself, 4 days): elevated KIM-1 on days 2 and 3
- Contrast KIM-1 (Urinary KIM-1; vs protamine alone, day 1 (prior to any drug), n = 6-7): 0.72 ng/24 h
- Contrast KIM-1 (Urinary KIM-1; vs protamine alone, day 2 (24 h after drug administration)): 24.92 ng/24 h
- Contrast KIM-1 (Urinary KIM-1; vs protamine alone, day 2 (24 h after drug administration), listed as vancomycin): 24.9 ng/24 h
- Contrast KIM-1 (Urinary KIM-1; vs protamine alone, day 3): 20.88 ng/24 h
- Contrast KIM-1 (Urinary KIM-1; vs protamine alone, day 4): 9.00 ng/24 h
- Contrast KIM-1 (Urinary KIM-1; [1]): 24.81 ng/24 h
- Contrast KIM-1 (Urinary KIM-1; [2]): 20.50 ng/24 h
- Contrast KIM-1 (Urinary KIM-1; [3]): 8.55 ng/24 h
- 95% confidence interval of contrast KIM-1 (Urinary KIM-1; vs protamine alone, day 1): (−22.3–23.8) ng/24 h
- 95% confidence interval of contrast KIM-1 (Urinary KIM-1; vs protamine alone, day 2): (1.9–48.0) ng/24 h
- 95% confidence interval of contrast KIM-1 (Urinary KIM-1; vs protamine alone, day 2, listed as vancomycin): 1.87–48.0 ng/24 h
- 95% confidence interval of contrast KIM-1 (Urinary KIM-1; vs protamine alone, day 3): (−2.2–43.9) ng/24 h
- 95% confidence interval of contrast KIM-1 (Urinary KIM-1; vs protamine alone, day 4): (−14.0–32.0) ng/24 h
- 95% confidence interval of contrast KIM-1 (Urinary KIM-1; [1]): (5.2–44.4) ng/24 h
- 95% confidence interval of contrast KIM-1 (Urinary KIM-1; [2]): (0.9–40.1) ng/24 h
- 95% confidence interval of contrast KIM-1 (Urinary KIM-1; [3]): (−11–28.1) ng/24 h

Compound: CC1(C)C[C@@H]1C(=O)N/C(=C\CCCCSC[C@H](N)C(=O)O)C(=O)O [cilastatin]
- Competition of drug binding to megalin (in words) (megalin; binding of gentamicin, colistin, vancomycin and cisplatin): the binding of all the drugs listed above is competed by cilastatin

Compound: N.N.[Cl][Pt][Cl] [cisplatin]
- Direct binding to megalin (in words) (megalin): megalin is bound specifically

Compound: CNC(C)C1CCC(N)C(OC2C(N)CC(N)C(OC3OCC(C)(O)C(NC)C3O)C2O)O1 (centres unmarked) [gentamicin]
- Direct binding to megalin (in words) (megalin): megalin is bound specifically

Compound: colistin
- Direct binding to megalin (in words) (megalin): megalin is bound specifically
